Data on ten compounds can be found in patent US20250177363A1, “SUBSTITUTED IMIDAZOPYRIDINYL COMPOUNDS USEFUL AS INHIBITORS OF TLR9” (Bristol-Myers Squibb Company, priority 2022, published 2025).

A value given as a limit tells only on which side of the number the result lay.

Holding throughout (assay type): cell-based
One assay deals with T1, human TLR7 (Homo sapiens, UniProt Q9NYK1).
T1 construct: host or cells: HEK-Blue cells
T1 sequence (Q9NYK1 27-1049): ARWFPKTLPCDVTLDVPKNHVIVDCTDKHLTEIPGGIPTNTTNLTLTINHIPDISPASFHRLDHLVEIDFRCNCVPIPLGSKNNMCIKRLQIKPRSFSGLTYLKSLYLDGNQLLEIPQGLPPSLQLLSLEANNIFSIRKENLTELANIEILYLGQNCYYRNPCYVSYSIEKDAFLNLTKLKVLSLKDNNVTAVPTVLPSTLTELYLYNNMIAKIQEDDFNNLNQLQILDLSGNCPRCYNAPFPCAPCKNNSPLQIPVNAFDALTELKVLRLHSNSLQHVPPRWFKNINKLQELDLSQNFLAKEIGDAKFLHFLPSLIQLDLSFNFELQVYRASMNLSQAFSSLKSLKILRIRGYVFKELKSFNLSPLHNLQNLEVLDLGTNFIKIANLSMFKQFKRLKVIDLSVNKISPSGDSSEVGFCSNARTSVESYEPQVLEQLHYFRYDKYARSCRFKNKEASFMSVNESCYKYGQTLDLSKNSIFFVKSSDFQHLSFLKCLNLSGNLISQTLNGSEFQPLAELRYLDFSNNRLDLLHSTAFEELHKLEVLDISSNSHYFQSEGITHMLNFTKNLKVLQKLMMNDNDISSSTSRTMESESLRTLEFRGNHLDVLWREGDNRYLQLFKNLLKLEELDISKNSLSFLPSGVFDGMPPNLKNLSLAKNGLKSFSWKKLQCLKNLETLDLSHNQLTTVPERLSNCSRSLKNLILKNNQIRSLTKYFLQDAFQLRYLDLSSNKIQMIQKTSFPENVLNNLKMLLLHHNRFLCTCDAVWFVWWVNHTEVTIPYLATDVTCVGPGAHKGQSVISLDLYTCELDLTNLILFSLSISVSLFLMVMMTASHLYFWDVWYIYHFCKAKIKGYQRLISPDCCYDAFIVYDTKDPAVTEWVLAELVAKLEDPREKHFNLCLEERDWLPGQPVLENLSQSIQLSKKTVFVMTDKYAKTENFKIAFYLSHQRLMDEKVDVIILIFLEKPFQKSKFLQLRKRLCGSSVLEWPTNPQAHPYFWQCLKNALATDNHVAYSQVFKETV
In words: TLR7 inhibition reporter assay (HEK-Blue, SEAP). The conditions noted are these: HEK-Blue cells overexpressing human TLR7, ligand gardiquimod 2.5 μM, 22 hour incubation. In outline: (§1)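 HEK-Blue cells expressing human TLR7, TLR8 or TLR9 with NF-κB/AP-1-driven SEAP reporter; compounds 0.85 nM–50 μM, pre-treated 60 min. Stimulation: gardiquimod 2.5 μM (TLR7), R848 14.25 μM (TLR8), ODN2006 200 nM (TLR9); SEAP read after 22 h at 37 °C. Percent inhibition normalized between agonist+DMSO and known-inhibitor wells.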
(In a reporter assay the amount or activity of a reporter protein is the signal.)

In a further assay the target is T2, human TLR8 (Homo sapiens, UniProt Q9NR97).
T2 construct: host or cells: HEK-Blue cells
T2 sequence (Q9NR97 27-1041): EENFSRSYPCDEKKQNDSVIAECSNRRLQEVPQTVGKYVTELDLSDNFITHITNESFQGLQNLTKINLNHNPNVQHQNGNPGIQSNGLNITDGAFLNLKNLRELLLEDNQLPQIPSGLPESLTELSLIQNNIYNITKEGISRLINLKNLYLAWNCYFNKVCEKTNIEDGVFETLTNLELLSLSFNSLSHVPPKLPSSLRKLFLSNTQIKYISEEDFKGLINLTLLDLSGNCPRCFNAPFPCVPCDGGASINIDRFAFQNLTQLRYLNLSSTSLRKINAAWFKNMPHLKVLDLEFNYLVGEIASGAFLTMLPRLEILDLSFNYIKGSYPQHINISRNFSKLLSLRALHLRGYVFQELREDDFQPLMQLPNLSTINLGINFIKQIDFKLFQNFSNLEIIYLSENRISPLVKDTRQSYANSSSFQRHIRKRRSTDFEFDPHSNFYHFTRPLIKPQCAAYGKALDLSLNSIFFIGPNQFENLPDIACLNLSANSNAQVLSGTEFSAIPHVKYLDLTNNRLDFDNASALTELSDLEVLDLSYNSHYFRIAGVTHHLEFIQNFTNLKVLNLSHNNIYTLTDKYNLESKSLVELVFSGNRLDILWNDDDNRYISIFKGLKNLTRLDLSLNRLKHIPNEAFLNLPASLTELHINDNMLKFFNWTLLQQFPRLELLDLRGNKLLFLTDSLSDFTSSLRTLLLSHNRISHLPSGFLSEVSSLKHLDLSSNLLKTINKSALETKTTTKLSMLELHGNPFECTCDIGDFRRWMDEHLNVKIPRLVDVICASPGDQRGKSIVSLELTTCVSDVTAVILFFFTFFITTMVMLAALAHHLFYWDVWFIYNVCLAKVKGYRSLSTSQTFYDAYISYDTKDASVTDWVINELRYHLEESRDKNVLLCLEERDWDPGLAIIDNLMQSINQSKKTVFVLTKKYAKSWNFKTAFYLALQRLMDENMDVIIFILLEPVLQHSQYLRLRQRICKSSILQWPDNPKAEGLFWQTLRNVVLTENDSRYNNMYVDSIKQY
In words: TLR8 inhibition reporter assay (HEK-Blue, SEAP). The note with it: HEK-Blue cells overexpressing human TLR8, ligand R848 14.25 μM, 22 hour incubation. In outline:
as §1

The target of a further assay is T3, human TLR9 (Homo sapiens, UniProt Q9NR96).
T3 construct: host or cells: HEK-Blue cells
T3 sequence (Q9NR96 26-1032): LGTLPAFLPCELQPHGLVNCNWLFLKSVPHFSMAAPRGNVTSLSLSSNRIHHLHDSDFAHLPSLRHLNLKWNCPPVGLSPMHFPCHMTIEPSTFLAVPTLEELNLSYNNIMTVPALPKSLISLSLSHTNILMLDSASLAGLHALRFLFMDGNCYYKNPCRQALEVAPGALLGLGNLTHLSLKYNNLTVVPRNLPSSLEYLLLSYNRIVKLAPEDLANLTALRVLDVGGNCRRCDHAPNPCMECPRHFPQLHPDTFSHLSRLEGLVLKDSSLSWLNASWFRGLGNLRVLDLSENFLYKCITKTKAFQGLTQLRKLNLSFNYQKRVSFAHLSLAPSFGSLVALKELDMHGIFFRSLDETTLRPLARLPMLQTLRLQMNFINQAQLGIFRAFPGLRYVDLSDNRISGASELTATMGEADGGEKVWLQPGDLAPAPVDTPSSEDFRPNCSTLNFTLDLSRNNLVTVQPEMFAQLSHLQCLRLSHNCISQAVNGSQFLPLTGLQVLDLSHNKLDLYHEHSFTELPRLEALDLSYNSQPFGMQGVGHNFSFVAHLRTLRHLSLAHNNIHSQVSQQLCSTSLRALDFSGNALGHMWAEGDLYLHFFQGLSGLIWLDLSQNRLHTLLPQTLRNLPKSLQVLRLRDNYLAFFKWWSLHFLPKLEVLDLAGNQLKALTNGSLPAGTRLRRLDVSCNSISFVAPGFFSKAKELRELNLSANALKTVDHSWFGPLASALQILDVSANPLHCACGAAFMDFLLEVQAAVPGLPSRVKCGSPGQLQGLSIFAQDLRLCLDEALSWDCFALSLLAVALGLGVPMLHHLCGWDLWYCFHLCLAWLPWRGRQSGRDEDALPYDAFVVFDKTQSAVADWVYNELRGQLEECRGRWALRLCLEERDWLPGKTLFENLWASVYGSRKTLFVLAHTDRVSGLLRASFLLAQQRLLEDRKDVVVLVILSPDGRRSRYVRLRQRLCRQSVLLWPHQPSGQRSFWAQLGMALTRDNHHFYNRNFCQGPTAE
In words: TLR9 inhibition reporter assay (HEK-Blue, SEAP). The conditions noted are these: HEK-Blue cells overexpressing human TLR9, ligand ODN2006 200 nM, 22 hour incubation. The method in brief: as §1

For the compound `COc1ccc(-c2nc3c(C)cc(C4CCN([C@H]5C[C@@H]6CN(CC(C)C)C[C@@H]6C5)CC4)nc3n2C)cc1OC` [Example 37, 2-(3,4-dimethoxyphenyl)-5-(1-(2-isobutyloctahydrocyclopenta[c]pyrrol-5-yl)piperidin-4-yl)-3,7-dimethyl-3H-imidazo[4,5-b]pyridine], the figures for the IC50 at human TLR7, against human TLR8 and against human TLR9 were 1200 nM, more than 50000 nM and 100 nM, respectively.
For `COc1ccc(-c2nc3c(C)cc(C4CCN([C@H]5C[C@@H]6CN(CC7CC7)C[C@@H]6C5)CC4)nc3n2C)cc1OC` [Example 38, 5-(1-(2-(cyclopropylmethyl)octahydrocyclopenta[c]pyrol-5-yl)piperidin-4-yl)-2-(3,4-dimethoxyphenyl)-3,7-dimethyl-3H-imidazo[4,5-b]pyridine] the same measures were 740 nM, more than 50000 nM and 80 nM.
For `COc1ccc(-c2nc3c(C)cc(C4CCN([C@H]5C[C@@H]6CN(C7CCC7)C[C@@H]6C5)CC4)nc3n2C)cc1OC` [Example 39, 5-(1-(2-cyclobutyloctahydrocyclopenta[c]pyrrol-5-yl)piperidin-4-yl)-2-(3,4-dimethoxyphenyl)-3,7-dimethyl-3H-imidazo[4,5-b]pyridine] the same measures were 310 nM, 24000 nM and 130 nM.
As for `COc1ccc(-c2nc3c(C)cc(C4CCN([C@H]5C[C@@H]6CN(C7CCOCC7)C[C@@H]6C5)CC4)nc3n2C)cc1OC` [Example 40, 2-(3,4-dimethoxyphenyl)-3,7-dimethyl-5-(1-(2-(tetrahydro-2H-pyran-4-yl)octahydrocyclopenta[c]pyrrol-5-yl)piperidin-4-yl)-3H-imidazo[4,5-b]pyridine], the IC50 (as a rule, the point on the concentration scale where inhibition reaches its midpoint) was 1300 nM against human TLR7, more than 50000 nM against human TLR8 and 220 nM at human TLR9.
As for `COCCN1C[C@H]2C[C@H](N3CCC(c4cc(C)c5nc(-c6ccc(OC)c(OC)c6)n(C)c5n4)CC3)C[C@H]2C1` [Example 41, 2-(3,4-dimethoxyphenyl)-5-(1-((3aR,5s,6aS)-2-(2-methoxyethyl)octahydrocyclopenta[c]pyrrol-5-yl)piperidin-4-yl)-3,7-dimethyl-3H-imidazo[4,5-b]pyridine], the values for the IC50 on human TLR7, against human TLR8 and against human TLR9 were 480 nM, more than 50000 nM and 73 nM, respectively.
The corresponding values for `COc1cc(-c2nc3c(C)cc(C4CCN([C@H]5C[C@@H]6CN(C7CCC7)C[C@@H]6C5)CC4)nc3n2C)cn2ncnc12` [Example 42, 5-(1-((3aR,5s,6aS)-2-cyclobutyloctahydrocyclopenta[c]pyrrol-5-yl)piperidin-4-yl)-2-(8-methoxy-[1,2,4]triazolo[1,5-a]pyridin-6-yl)-3,7-dimethyl-3H-imidazo[4,5-b]pyridine] are 17000 nM, more than 50000 nM and 84 nM.
The corresponding values for `COc1cc(-c2nc3c(C)cc(C4CCN([C@H]5C[C@@H]6CN(CC7CC7)C[C@@H]6C5)CC4)nc3n2C)cn2ncnc12` [Example 43, 5-(1-((3aR,5s,6aS)-2-(cyclopropylmethyl)octahydrocyclopenta[c]pyrrol-5-yl)piperidin-4-yl)-2-(8-methoxy-[1,2,4]triazolo[1,5-a]pyridin-6-yl)-3,7-dimethyl-3H-imidazo[4,5-b]pyridine] are 250 nM, more than 50000 nM and 52 nM.
Regarding `COc1cc(-c2nc3c(C)cc(C4CCN([C@H]5C[C@@H]6CN(C7CCOCC7)C[C@@H]6C5)CC4)nc3n2C)cn2ncnc12` [Example 44, 2-(8-methoxy-[1,2,4]triazolo[1,5-a]pyridin-6-yl)-3,7-dimethyl-5-(1-((3aR,5s,6aS)-2-(tetrahydro-2H-pyran-4-yl)octahydrocyclopenta[c]pyrrol-5-yl)piperidin-4-yl)-3H-imidazo[4,5-b]pyridine], the IC50 against human TLR7 is 4500 nM; on human TLR8, more than 50000 nM; against human TLR9, 180 nM.
For `COCCN1C[C@H]2C[C@H](N3CCC(c4cc(C)c5nc(-c6cc(OC)c7ncnn7c6)n(C)c5n4)CC3)C[C@H]2C1` [Example 46, 2-(8-methoxy-[1,2,4]triazolo[1,5-a]pyridin-6-yl)-5-(1-((3aR,5s,6aS)-2-(2-methoxyethyl)octahydrocyclopenta[c]pyrrol-5-yl)piperidin-4-yl)-3,7-dimethyl-3H-imidazo[4,5-b]pyridine] the same measures were 360 nM, more than 50000 nM and 27 nM.
As to `Cc1cc(-c2ccc(CN3CCC(N4CCOCC4)CC3)cc2)nc2c1nc(-c1ccc(S(C)(=O)=O)cc1)n2C1CC1` [Example 47, 4-(1-(4-(3-cyclopropyl-7-methyl-2-(4-(methylsulfonyl)phenyl)-3H-imidazo[4,5-b]pyridin-5-yl)benzyl)piperidin-4-yl)morpholine], the IC50 is 15000 nM on human TLR7, more than 50000 nM against human TLR8 and 290 nM on human TLR9.
